According to patent US10377755B2, “BCL-2 inhibitors” (Newave Pharmaceutical Inc., priority 2016, dated 2019):

Experiments:
RS4;11 = assay: In vitro anti-proliferation assay (ATPlite) in BCL-2-dependent acute lymphoblastic leukemia cell line RS4;11; assay type: cell-based; conditions: Homo sapiens, about 72 hours, 5% FBS
Method: Biological Example 2: In Vitro Anti-Proliferation Assay in BCL-2-Dependent Acute Lymphoblastic Leukemia Cell Line RS4;11
(§1) Cell antiproliferation is assayed by PerkinElmer ATPlite™ Luminescence Assay System. Briefly, the various test cancer cell lines are plated at a density of about 1×10^4 cells per well in Costar 96-well plates, and are incubated with different concentrations of compounds for about 72 hours in medium supplemented with 5% FBS. One lyophilized substrate solution vial is then reconstituted by adding 5 mL of substrate buffer solution, and is agitated gently until the solution is homogeneous. About 50 μL of mammalian cell lysis solution is added to 100 μL of cell suspension per well of a microplate, and the plate is shaken for about five minutes in an orbital shaker at ˜700 rpm. This procedure is used to lyse the cells and to stabilize the ATP. Next, 50 μL substrate solution is added to the wells and microplate is shaken for five minutes in an orbital shaker at ˜700 rpm. Finally, the luminescence is measured by a PerkinElmer TopCount® Microplate Scintillation Counter. Such assays, carried out with a range of doses of test compounds, allow the determination of the cellular anti-antiproliferative IC50 of the compounds of the present invention. The following table lists the IC50 values of certain compounds of the invention.

Bcl-2 = Bcl-2 (Homo sapiens (Human), UniProt P10415); assay: Bcl-2 competition binding (fluorescence polarization) assay; conditions: BH3 peptide, 3 hours incubation at room temperature
Chain of Bcl-2 (P10415 whole entry): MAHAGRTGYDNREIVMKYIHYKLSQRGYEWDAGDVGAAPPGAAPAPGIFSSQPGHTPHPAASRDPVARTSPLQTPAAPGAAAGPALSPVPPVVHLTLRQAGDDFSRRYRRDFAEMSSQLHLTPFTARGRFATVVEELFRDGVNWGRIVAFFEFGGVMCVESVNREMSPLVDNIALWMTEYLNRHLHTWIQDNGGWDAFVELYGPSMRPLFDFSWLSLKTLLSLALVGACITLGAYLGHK
Method: Biological Example 1: Bcl-2 Competition Binding (Fluorescence Polarization) Assay
This binding assay was performed in 96-well plate and with each assay contained 15 and 30 nM of labeled peptide and purified Bcl-2 protein (purchased from R&D Systems, Inc). The assay buffer contained 20 mM Hepes (pH 7.0), 50 mM KCl, 5 mM MgCl2, 20 mM Na2MoO4, 0.1 mg/ml Bovine Gamma Globulin and 0.01% NP40. Compounds were diluted in DMSO and added to the final assay with concentration range from 20 uM to 2 nM. The polarization degree (mP) value was determined by BioTek Synergy II with background subtraction after 3 hours of incubation at room temperature. IC50 was calculated using Prism software with sigmoidal dose-response curve fitting. ABT-737 was used as reference compound. Such assays, carried out with a range of doses of test compounds, allow the determination of an approximate IC50 value.

H146 = assay: In vitro anti-proliferation assay (ATPlite) in BCL-XL-dependent small cell lung cancer cell line H146; assay type: cell-based; conditions: for IC50: Homo sapiens, NCI-H146, about 72 hours, 5% FBS
Method: as §1, with “invention.” for “invention. The following table lists the IC50 values of certain compounds of the invention.”

H345 xenograft = conditions: 100 mg/kg/day, H345 xenograft model; cited from earlier work
circulating platelets = conditions: clinical trial, patients; cited from earlier work
SCLC H146 cell line = conditions: read-out: IC50 against SCLC H146 cell line; cited from earlier work
[1] = tested on: xenograft models of small-cell lung cancer and acute lymphoblastic leukemia; conditions: single agent; cited from earlier work
Bcl-w = Bcl-w (Homo sapiens (Human), UniProt Q92843); conditions: cited from earlier work
Chain of Bcl-w (Q92843 whole entry): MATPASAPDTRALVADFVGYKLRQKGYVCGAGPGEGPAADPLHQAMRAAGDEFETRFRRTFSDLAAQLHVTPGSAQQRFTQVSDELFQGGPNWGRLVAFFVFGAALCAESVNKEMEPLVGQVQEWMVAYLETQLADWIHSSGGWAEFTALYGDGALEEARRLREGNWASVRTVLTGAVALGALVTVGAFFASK

[2] = cited from earlier work
[3] = cited from earlier work; remark: listed apart in the source

CC1(C)CCC(CN2CCN(c3ccc(C(=O)NS(=O)(=O)c4ccc(NCC5CCOCC5)c([N+](=O)[O-])c4)c(-n4ncc5nc6[nH]ccc6cc54)c3)CC2)=C(c2ccc(Cl)cc2)C1 [Example 4, 4-(4-((4′-chloro-5,5-dimethyl-3,4,5,6-tetrahydro-[1,1′-biphenyl]-2-yl)methyl)piperazin-1-yl)-N-((3-nitro-4-(((tetrahydro-2H-pyran-4-yl)methyl)amino)phenyl)sulfonyl)-2-(pyrazolo[4,3-b]pyrrolo[3,2-e]pyridin-1(5H)-yl)benzamide]
IC50 (RS4;11): < 15 nM | IC50 (Bcl-2): < 10 nM | BCL-2 selectivity concluded from H146 IC50 (H146; BCL-XL dependent cell line H146): BCL-2 selective inhibitor | IC50 (H146): > 2000 nM

CC1(C)CCC(CN2CCN(c3ccc(C(=O)NS(=O)(=O)c4ccc(SCC5CCOCC5)c([N+](=O)[O-])c4)c(-n4ncc5nc6[nH]ccc6cc54)c3)CC2)=C(c2ccc(Cl)cc2)C1 [Example 11, 4-(4-((4′-chloro-5,5-dimethyl-3,4,5,6-tetrahydro-[1,1′-biphenyl]-2-yl)methyl)piperazin-1-yl)-N-((3-nitro-4-(((tetrahydro-2H-pyran-4-yl)methyl)thio)phenyl)sulfonyl)-2-(pyrazolo[4,3-b]pyrrolo[3,2-e]pyridin-1(5H)-yl)benzamide]
IC50 (Bcl-2): < 10 nM

CN1CCC(F)(CNc2ccc(S(=O)(=O)NC(=O)c3ccc(N4CCN(CC5=C(c6ccc(Cl)cc6)CC(C)(C)CC5)CC4)cc3-n3ncc4nc5[nH]ccc5cc43)cc2[N+](=O)[O-])CC1 [Example 16, 4-(4-((4′-chloro-5,5-dimethyl-3,4,5,6-tetrahydro-[1,1′-biphenyl]-2-yl)methyl)piperazin-1-yl)-N-((4-(((4-fluoro-1-methylpiperidin-4-yl)methyl)amino)-3-nitrophenyl)sulfonyl)-2-(pyrazolo[4,3-b]pyrrolo[3,2-e]pyridin-1(5H)-yl)benzamide]
IC50 (Bcl-2): < 10 nM

CC1(C)CCC(CN2CCN(c3ccc(C(=O)NS(=O)(=O)c4ccc(OCC5CCOCC5)c([N+](=O)[O-])c4)c(-n4ncc5nc6[nH]ccc6cc54)c3)CC2)=C(c2ccc(Cl)cc2)C1 [Example 18, 4-(4-((4′-chloro-5,5-dimethyl-3,4,5,6-tetrahydro-[1,1′-biphenyl]-2-yl)methyl)piperazin-1-yl)-N-((3-nitro-4-((tetrahydro-2H-pyran-4-yl)methoxy)phenyl)sulfonyl)-2-(pyrazolo[4,3-b]pyrrolo[3,2-e]pyridin-1(5H)-yl)benzamide]
IC50 (Bcl-2): < 10 nM

CC1(C)CCC(CN2CCN(c3ccc(C(=O)NS(=O)(=O)c4ccc(NCC5(F)CCOCC5)c([N+](=O)[O-])c4)c(-n4ncc5nc6[nH]ccc6cc54)c3)CC2)=C(c2ccc(Cl)cc2)C1 [Example 12, 4-(4-((4′-chloro-5,5-dimethyl-3,4,5,6-tetrahydro-[1,1′-biphenyl]-2-yl)methyl)piperazin-1-yl)-N-((4-(((4-fluorotetrahydro-2H-pyran-4-yl)methyl)amino)-3-nitrophenyl)sulfonyl)-2-(pyrazolo[4,3-b]pyrrolo[3,2-e]pyridin-1(5H)-yl)benzamide]
IC50 (RS4;11): < 15 nM | IC50 (Bcl-2): < 10 nM | IC50 (H146): > 2000 nM

CC1(C)CCC(c2ccc(Cl)cc2)=C(CN2CCN(c3ccc(C(=O)NS(=O)(=O)c4ccc(N[C@H](CCN5CCOCC5)CSc5ccccc5)c(S(=O)(=O)C(F)(F)F)c4)cc3)CC2)C1 [ABT-263]
TGI (H345 xenograft): 80% | treated tumors indicating at least a 50% reduction in tumor volume (H345 xenograft): 20% | effect on number of circulating platelets (circulating platelets): rapid, concentration-dependent decrease | IC50 (SCLC H146 cell line): 110 nM | tumor response, oral administration alone [1]: complete tumor regressions | Ki (Bcl-w): ≤ 1 nM | IC50 (H146): 60 nM

CC1(C)CCC(CN2CCN(c3ccc(C(=O)NS(=O)(=O)c4ccc(NC[C@@H]5CN(C6COC6)CCO5)c([N+](=O)[O-])c4)c(-n4ncc5nc6[nH]ccc6cc54)c3)CC2)=C(c2ccc(Cl)cc2)C1 [Example 15, (R)-4-(4-((4′-chloro-5,5-dimethyl-3,4,5,6-tetrahydro-[1,1′-biphenyl]-2-yl)methyl)piperazin-1-yl)-N-((3-nitro-4-(((4-(oxetan-3-yl)morpholin-2-yl)methyl)amino)phenyl)sulfonyl)-2-(pyrazolo[4,3-b]pyrrolo[3,2-e]pyridin-1(5H)-yl)benzamide]
IC50 (Bcl-2): < 10 nM

CN1CCC(CNc2ccc(S(=O)(=O)NC(=O)c3ccc(N4CCN(CC5=C(c6ccc(Cl)cc6)CC(C)(C)CC5)CC4)cc3-n3ncc4nc5[nH]ccc5cc43)cc2[N+](=O)[O-])CC1 [Example 13, 4-(4-((4′-chloro-5,5-dimethyl-3,4,5,6-tetrahydro-[1,1′-biphenyl]-2-yl)methyl)piperazin-1-yl)-N-((4-(((1-methylpiperidin-4-yl)methyl)amino)-3-nitrophenyl)sulfonyl)-2-(pyrazolo[4,3-b]pyrrolo[3,2-e]pyridin-1(5H)-yl)benzamide]
IC50 (Bcl-2): < 10 nM

CC1(C)CCC(CN2CCN(c3ccc(C(=O)NS(=O)(=O)c4ccc(NCC5(F)CCN(C6COC6)CC5)c([N+](=O)[O-])c4)c(-n4ncc5nc6[nH]ccc6cc54)c3)CC2)=C(c2ccc(Cl)cc2)C1 [Example 14, 4-(4-((4′-chloro-5,5-dimethyl-3,4,5,6-tetrahydro-[1,1′-biphenyl]-2-yl)methyl)piperazin-1-yl)-N-((4-(((4-fluoro-1-(oxetan-3-yl)piperidin-4-yl)methyl)amino)-3-nitrophenyl)sulfonyl)-2-(pyrazolo[4,3-b]pyrrolo[3,2-e]pyridin-1(5H)-yl)benzamide]
IC50 (Bcl-2): < 10 nM

CC1(C)CCC(CN2CCN(c3ccc(C(=O)NS(=O)(=O)c4ccc(OCC5(F)CCN(C6COC6)CC5)c([N+](=O)[O-])c4)c(-n4ncc5nc6[nH]ccc6cc54)c3)CC2)=C(c2ccc(Cl)cc2)C1 [Example 17, 4-(4-((4′-chloro-5,5-dimethyl-3,4,5,6-tetrahydro-[1,1′-biphenyl]-2-yl)methyl)piperazin-1-yl)-N-((4-((4-fluoro-1-(oxetan-3-yl)piperidin-4-yl)methoxy)-3-nitrophenyl)sulfonyl)-2-(pyrazolo[4,3-b]pyrrolo[3,2-e]pyridin-1(5H)-yl)benzamide]
IC50 (Bcl-2): < 10 nM

CN(C)CC[C@H](CSc1ccccc1)Nc1ccc(S(=O)(=O)NC(=O)c2ccc(N3CCN(Cc4ccccc4-c4ccc(Cl)cc4)CC3)cc2)cc1[N+](=O)[O-] [ABT-737]
oral bioavailability [2]: not orally bioavailable | aqueous solubility [3]: low

CC1(C)CCC(CN2CCN(c3ccc(C(=O)NS(=O)(=O)c4ccc(N5CCOCC5)c([N+](=O)[O-])c4)c(-n4ncc5nc6[nH]ccc6cc54)c3)CC2)=C(c2ccc(Cl)cc2)C1 [Example 8, 4-(4-((4′-chloro-5,5-dimethyl-3,4,5,6-tetrahydro-[1,1′-biphenyl]-2-yl)methyl)piperazin-1-yl)-N-((4-morpholino-3-nitrophenyl)sulfonyl)-2-(pyrazolo[4,3-b]pyrrolo[3,2-e]pyridin-1(5H)-yl)benzamide]
IC50 (Bcl-2): < 10 nM
